Drawing on US8476302B2, “α-ketoamide derivatives useful endothelial lipase inhibitors” (Janssen Pharmaceutica N.V., priority 2010, dated 2013), this text covers IC50 for 39 compounds.

Experiment [1] addresses T1, human endothelial lipase (EL) (Homo sapiens, UniProt Q9Y5X9).
T1 construct: host or cells: cells expressing human endothelial lipase
T1 sequence (Q9Y5X9 21-500): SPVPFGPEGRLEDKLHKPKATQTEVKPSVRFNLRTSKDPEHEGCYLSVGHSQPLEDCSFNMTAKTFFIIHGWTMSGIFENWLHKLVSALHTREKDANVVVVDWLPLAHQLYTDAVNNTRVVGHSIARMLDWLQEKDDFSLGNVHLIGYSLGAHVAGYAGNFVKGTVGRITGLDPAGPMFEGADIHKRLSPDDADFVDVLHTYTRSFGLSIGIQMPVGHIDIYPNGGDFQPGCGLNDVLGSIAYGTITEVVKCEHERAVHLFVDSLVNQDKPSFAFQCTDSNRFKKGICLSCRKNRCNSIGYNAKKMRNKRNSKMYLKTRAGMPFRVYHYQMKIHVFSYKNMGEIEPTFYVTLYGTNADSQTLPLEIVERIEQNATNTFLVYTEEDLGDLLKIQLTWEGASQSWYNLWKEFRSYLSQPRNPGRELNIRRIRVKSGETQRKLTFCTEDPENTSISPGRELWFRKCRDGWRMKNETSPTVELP
The experiment is described as follows: Endothelial Lipase Assay, cell surface lipase activity (human). Format: cell-based. The following applies: cells expressing human EL, PLA1 substrate 10 μM, fluorescence reaction rate; several values in a cell are repeat determinations. Here is the method: (§1) Endothelial Lipase Assay (Human/Mouse)
(§2) To assay for cell surface lipase activity, cells expressing human endothelial lipase (EL) or LPL were plated in CellBIND® 384-well plates (Corning, Lowell, Mass.) in 25 μL serum free medium at a density of 2000 cells/well. After 18-24 hours incubation at 37° C., the medium was removed and replaced with 15 μL assay buffer [Hank's Buffered Saline Solution with 25 mM HEPES pH 7.2] and 15 μL PLA1 for a final concentration of 10 μM using a Multidrop reagent dispenser. Fluorescence signal was monitored for 30 min at 37° C. on a Safire II plate reader in kinetic mode (60 cycles, kinetic interval: 30 seconds) with an excitation wavelength of 490 nm and an emission wavelength of 515 nm. Linear regression of the fluorescence intensity collected from 480 to 1500 seconds was used to calculate the reaction rate (the slope) and the slopes were used to calculate IC50 values where appropriate. The amount of BODIPY-labeled product generated was calculated at the 30 min time point as determined from standard curve analysis of purified BODIPY FL C5. In all studies using the inhibitor Ebelactone B, consistent results were obtained when it was dissolved as a stock in DMSO, immediately before use.

In another experiment the target is T2, Mouse EL (Mus musculus, UniProt Q9WVG5).
T2 construct: host or cells: not described for mouse EL
T2 sequence (Q9WVG5 21-500): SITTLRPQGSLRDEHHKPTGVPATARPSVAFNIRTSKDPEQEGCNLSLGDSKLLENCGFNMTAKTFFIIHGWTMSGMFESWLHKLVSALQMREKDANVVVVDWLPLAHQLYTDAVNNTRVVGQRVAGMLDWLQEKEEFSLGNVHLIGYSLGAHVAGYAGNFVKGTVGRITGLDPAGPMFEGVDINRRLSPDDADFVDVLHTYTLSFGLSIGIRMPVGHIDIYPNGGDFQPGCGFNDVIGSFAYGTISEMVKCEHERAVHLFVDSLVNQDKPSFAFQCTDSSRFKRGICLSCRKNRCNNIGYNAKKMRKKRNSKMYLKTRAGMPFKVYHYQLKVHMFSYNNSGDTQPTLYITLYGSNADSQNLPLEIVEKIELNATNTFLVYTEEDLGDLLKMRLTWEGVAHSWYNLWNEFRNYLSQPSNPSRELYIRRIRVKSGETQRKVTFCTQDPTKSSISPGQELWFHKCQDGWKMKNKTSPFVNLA
Briefly: Endothelial Lipase Assay, cell surface lipase activity (mouse). Format: cell-based. The following applies: PLA1 substrate 10 μM, fluorescence reaction rate, several values in a cell are repeat determinations. Here is the method:
as §1, §2

“And” between values parts separate entries of the source, which are not always exact repeats. Equal entries are not always repeated.

For orientation: IC50 means the concentration needed to halve the response being measured. Higher therefore signals lower potency. Consider `O=C(CCCCCOc1cc(F)ccc1F)C(=O)NCc1nnc(-c2ccc(Oc3ccccc3)cc2)o1` [Compound 98], for which the figures for the concentration for half-maximal inhibition (IC50) (in experiment [1]; at Mouse EL) were 1730 nM and 774 nM, respectively.

`O=C(CCCCCOc1ccc(F)cc1F)C(=O)NCc1nnc(-c2ccc(OCc3ccccc3)cc2)o1` [Compound 99]: the values for the 50% inhibitory concentration (IC50) (in experiment [1]; against Mouse EL) were 2150 nM and 1050 nM, respectively.

As for `O=C(CCCCCOc1cc(F)cc(F)c1)C(=O)NCc1nnc(-c2ccc(OCc3ccccc3)cc2)o1` [Compound 100], the IC50 in experiment [1] came to 1330 nM; against Mouse EL it was 551 nM.

As for `O=C(CCCCCOc1c(F)cccc1F)C(=O)NCc1nnc(-c2ccc(OCc3ccccc3)cc2)o1` [Compound 101], the IC50 in experiment [1] worked out at 5480 nM; against Mouse EL, 19900 nM.

Turning to `O=C(CCCCCOc1cccc(F)c1F)C(=O)NCc1nnc(-c2ccc(Oc3ccccc3)cc2)o1` [Compound 102], the half-inhibitory concentration (IC50) in experiment [1] was determined as 1970 nM; against Mouse EL it was 809 nM.

Take `O=C(CCCCCCc1ccccc1)C(=O)NCc1nnc(-c2ccc(OCn3nnc4ccccc43)cc2)o1` [Compound 104]: the IC50 in experiment [1] worked out at 230 nM; at Mouse EL, 181 nM.

For `O=C(CCCCCCc1ccccc1)C(=O)NCc1nnc(-c2ccc(Oc3ccc(F)cc3)cc2)o1` [Compound 106], the IC50 was 746 nM in experiment [1] and 298 nM on Mouse EL.

In the case of `O=C(CCCCCCc1ccccc1)C(=O)NCc1nnc(-c2ccc(OCc3ccncn3)cc2)o1` [Compound 107], the results for the IC50 (in experiment [1]; on Mouse EL) were 345 nM and 216 nM, respectively.

For the compound `O=C(CCCCCOc1cc(F)cc(F)c1)C(=O)NCc1nnc(-c2ccccc2)s1` [Compound 108], the IC50 in experiment [1] came to 626 nM; against Mouse EL, 1170 nM.

As for `CN(Cc1ccccc1)c1ccc(-c2nnc(CNC(=O)C(=O)CCCCCCc3ccccc3)o2)cc1` [Compound 109], the IC50 in experiment [1] stood at 505 nM; against Mouse EL it was 317 nM.

`CN(Cc1ccc(F)c(F)c1)c1ccc(-c2nnc(CNC(=O)C(=O)CCCCCCc3ccccc3)o2)cc1` [Compound 110]: the 50% inhibitory concentration (IC50) in experiment [1] was found to be 677 nM; against Mouse EL, 346 nM.

`CN(Cc1ccccn1)c1ccc(-c2nnc(CNC(=O)C(=O)CCCCCCc3ccccc3)o2)cc1` [Compound 111]: the IC50 in experiment [1] is 236 nM; against Mouse EL it was 156 nM.

For `CC(C)(C)OC(=O)N(Cc1ccccc1)c1ccc(-c2nnc(CNC(=O)C(=O)CCCCCCc3ccccc3)o2)cc1` [Compound 115], the IC50 in experiment [1] was determined as 515 nM; at Mouse EL, 254 nM.

As for `O=C(CCCCCCc1ccccc1)C(=O)NCc1nnc(-c2ccc(NCc3ccccc3)cc2)o1` [Compound 116], the concentration for half-maximal inhibition (IC50) in experiment [1] came to 325 nM; on Mouse EL, 289 nM.

For the compound `N#Cc1cccc(COc2ccc(-c3nnc(CNC(=O)C(=O)CCCCCCc4ccccc4)o3)cc2)c1` [Compound 117], the IC50 was determined as 78 nM in experiment [1] and 50 nM against Mouse EL.

On to `O=C(CCCCCCc1ccccc1)C(=O)NCc1nnc(-c2ccc(NCc3ccc(F)c(F)c3)cc2)o1` [Compound 118], for which the half-inhibitory concentration (IC50) was 675 nM in experiment [1] and 476 nM at Mouse EL.

In the case of `O=C(CCCCCCc1cccnc1F)C(=O)NCc1nnc(-c2ccc(Oc3ccccc3)cc2)o1` [Compound 119], the IC50 in experiment [1] was 979 nM; on Mouse EL, 904 nM.

`O=C(CCCCCCc1cncnc1)C(=O)NCc1nnc(-c2ccc(Oc3ccccc3)cc2)o1` [Compound 120]: the IC50 in experiment [1] was found to be 1510 nM; on Mouse EL, 973 nM.

Consider `O=C(CCCCCCc1ccccc1)C(=O)NCc1nnc(-c2ccc(OCc3cccc(F)n3)cc2)o1` [Compound 121], for which the IC50 in experiment [1] was found to be 471 nM; against Mouse EL, 187 nM.

In the case of `CC(C)(C)OC(=O)N(Cc1cccnc1)c1ccc(-c2nnc(CNC(=O)C(=O)CCCCCCc3ccccc3)o2)cc1` [Compound 123], the half-maximal inhibitory concentration (IC50) in experiment [1] is 288 nM; on Mouse EL, 182 nM.

`O=C(CCCCCCc1ccccc1)C(=O)NCc1nnc(-c2ccc(NCc3cccnc3)cc2)o1` [Compound 124]: the values for the IC50 (in experiment [1]; on Mouse EL) were 3610 nM and 2930 nM, respectively.

Take `CC(C)(C)OC(=O)c1cccc(COc2ccc(-c3nnc(CNC(=O)C(=O)CCCCCCc4ccccc4)o3)cc2)c1` [Compound 125]: the half-inhibitory concentration (IC50) in experiment [1] came to 2580 nM; against Mouse EL it was 993 nM.

For `O=C(CCCCCCc1ccccc1)C(=O)NCc1nnc(-c2ccc(OCc3cccc(C(=O)O)c3)cc2)o1` [Compound 126], the concentration for half-maximal inhibition (IC50) was found to be 398 nM in experiment [1] and 242 nM at Mouse EL.

Consider `O=C(CCCCCCc1ccc(F)nc1)C(=O)NCc1nnc(-c2ccc(Oc3ccccc3)cc2)o1` [Compound 127], for which the IC50 in experiment [1] came to 308 nM; at Mouse EL, 281 nM.

As for `O=C(CCCCCCc1ccccc1)C(=O)NCc1nnc(-c2ccc(OCc3cccc(F)c3)cc2)s1` [Compound 128, N-((5-(4-((3-fluorobenzyl)oxy)phenyl)-1,3,4-thiadiazol-2-yl)methyl)-2-oxo-8-phenyloctanamide], the IC50 in experiment [1] is 129 nM; against Mouse EL, 87 nM.

In the case of `O=C(CCCCCCc1ccccc1)C(=O)NCc1nnc(-c2ccc(OCc3ccccc3)cc2)s1` [Compound 129], the IC50 in experiment [1] was found to be 325 nM; at Mouse EL it was 264 nM.

Turning to `O=C(CCCCCCc1ccccc1)C(=O)NCc1nnc(-c2ccc(Oc3ccccc3)cc2)s1` [Compound 130], the IC50 in experiment [1] worked out at 111 nM; against Mouse EL, 80 nM.

For `O=C(CCCCCOc1cc(F)cc(F)c1)C(=O)NCc1nnc(-c2ccc(Oc3ccccc3)cc2)s1` [Compound 133], the values for the 50% inhibitory concentration (IC50) (in experiment [1]; against Mouse EL) were 386 nM and 176 nM, respectively.

With `O=C(CCCCCOc1cccc(Cl)c1)C(=O)NCc1nnc(-c2ccc(Oc3ccccc3)cc2)s1` [Compound 134], the IC50 in experiment [1] was 604 nM; against Mouse EL it was 243 nM.

Consider `O=C(CCCCCCc1ccc(C(F)(F)F)nc1)C(=O)NCc1nnc(-c2ccc(Oc3ccccc3)cc2)o1` [Compound 136], for which the concentration for half-maximal inhibition (IC50) was 595 nM in experiment [1] and 406 nM against Mouse EL.

Consider `COC(=O)c1cccc(COc2ccc(-c3nnc(CNC(=O)C(=O)CCCCCCc4ccccc4)s3)cc2)c1` [Compound 137], for which the IC50 in experiment [1] worked out at 93 nM; on Mouse EL it was 37 nM.

As for `O=C(CCCCCCc1ccccc1)C(=O)NCc1nnc(-c2ccc(OCc3cccnc3)cc2)s1` [Compound 138], the concentration for half-maximal inhibition (IC50) in experiment [1] is 55 nM and 108 nM; on Mouse EL, 58 nM and 79 nM.

Take `O=C(CCCCCCc1ccccc1)C(=O)NCc1nnc(-c2ccc(OCc3ccccn3)cc2)s1` [Compound 139]: the IC50 in experiment [1] worked out at 71 nM; on Mouse EL, 42 nM.

For the compound `O=C(CCCCCCc1ccccc1)C(=O)NCc1nnc(-c2ccc(OCc3ccncc3)cc2)s1` [Compound 140, 2-oxo-8-phenyl-N-((5-(4-(pyridin-4-ylmethoxy)phenyl)-1,3,4-thiadiazol-2-yl)methyl)octanamide], the IC50 in experiment [1] turned out to be 32 nM; against Mouse EL it was 29 nM.

Take `COC(=O)c1ccc(COc2ccc(-c3nnc(CNC(=O)C(=O)CCCCCCc4ccccc4)s3)cc2)o1` [Compound 141]: the half-maximal inhibitory concentration (IC50) in experiment [1] turned out to be 101 nM; against Mouse EL, 45 nM.

For `NC(=O)c1cncc(CCCCCCC(=O)C(=O)NCc2nnc(-c3ccc(Oc4ccccc4)cc3)o2)c1` [Compound 142], the IC50 stood at 1580 nM in experiment [1] and 897 nM on Mouse EL.

Turning to `O=C(CCCCC=Cc1ccccc1)C(=O)NCc1nnc(-c2ccc(Oc3ccccc3)cc2)o1` [Compound 143], the values for the half-inhibitory concentration (IC50) (in experiment [1]; against Mouse EL) were 7690 nM and 11100 nM, respectively.

As to `N#Cc1cccc(COc2ccc(-c3nnc(CNC(=O)C(=O)CCCCCCc4ccccc4)s3)cc2)c1` [Compound 144], the IC50 is 421 nM in experiment [1] and 249 nM at Mouse EL.

Turning to `O=C(CCCCCCc1ccccc1)C(=O)NCc1nnc(-c2ccc(OCc3ccccc3F)cc2)s1` [Compound 145], the IC50 is 312 nM in experiment [1] and 168 nM against Mouse EL.
